{"source": "patent US20130225522A1", "about": "“COMPOSITION FOR RELIEVING STIMULUS OF SKIN CAUSED BY DYE” (Amorepacific Corporation, priority 2009, published 2013)", "test_system": "mouse ear", "assay": "mouse ear swelling test (MEST)", "type": "in vivo", "settings": "BALB/c mouse", "protocol": "To evaluate an effect of relieving skin irritation caused by a dye and for preventing or inhibiting inflammation caused by a dye, the mouse ear swelling test (MEST) using a mouse is carried out in the manner as described below.\nA 7 weeks-aged mouse subject (BALC/c) is obtained and subjected to quarantine and adaptation for a period of 10 days. Then, the mouse is dehaired at its abdominal portion, and a main ingredient of dye, i.e. 3% paraphenylene diamine (PPD) is applied thereto in combination with a monosaccharide (glucose, galactose or fructose) or disaccharide (maltose, lactose or sucrose) for 7 days three times a day. As a control, each of dimethyl sulfoxide (DMSO) solvent and 3% PPD is applied. Twenty-four hours after the final application, the mouse ear is weighed. After weighing, the mouse ear is fixed in formalin and subjected to hematoxylin & eosin (H&E) staining for a histopathological test. Then, the thickness of the mouse ear is determined. Herein, the weight of the mouse ear is measured by biopsy of the ear of the mouse subject (Balb/c), to which each test sample is applied, using a 6 mm punch. The thickness of the mouse ear is determined by measuring the thickness of the ear of the mouse subject (Balb/c) stained after weighing the mouse ear weight by using a microscope."}
{"smiles": "Nc1ccc(N)cc1", "note": "[PPD (3%), paraphenylene diamine]", "values": [{"measurement": "Ear thickness", "setting": "3% PPD alone or in combination with saccharide applied for 7 days three times a day, formalin-fixed, H&E stained ear measured by microscope", "result": "433.28 ± 11.57", "unit": "μm"}, {"measurement": "Ear weight", "setting": "3% PPD alone or in combination with saccharide applied to dehaired abdominal portion for 7 days three times a day, ear weighed 24 h after final application, 6 mm punch biopsy", "result": "14.74 ± 0.23", "unit": "mg"}]}
